Assay results from PMC9739695, “Water-Soluble Salts Based on Benzofuroxan Derivatives—Synthesis and Biological Activity” (International Journal of Molecular Sciences, 2022).
Like-named read-outs stand apart in the source and are kept apart here.

Experiments:
[1] = test system: Hek 293 (human embryonic kidneys); assay: Cell viability, MTT test, normal cell line; assay type: cell-based; conditions: read-out: IC50 (concentration causing 50% inhibition of cell population growth)
Experimental: (§1) In this work, the cytotoxic potential of the water-soluble salts based on benzofuroxan was determined by the effect of compounds on the survival of the cell tumor origin cultures (SH-SY5Y, Hep2, A549, HeLa) using the MTT test. To understand how the synthesized compounds can influence the healthy microenvironment in the body, the effect of substances on the viability of a normal Hek 293 cell culture was additionally evaluated.
(§2) Human cell cultures of tumor origin—SH-SY5Y (neuroblastoma), HeLa (cervical tumor), Hep-2 (larynx carcinoma), A549 (adenocarcinomic human alveolar basal epithelial cells)—and normal cell line Hek 293 (human embryonic kidneys), provided by the Laboratory of Tumor Cell Genetics of the Scientific Research Institute of Carcinogenesis, N.N. Blokhin National Medical Research Center of Oncology, as well as the Institute of Cytology of the Russian Academy of Sciences, were grown in a nutrient medium DMEM (PanEco, Moscow, Russia) and MEM (PanEco, Moscow, Russia), containing fetal bovine serum (10% by volume) (ThermoFisher Scientific, Paisley, UK), Glutamax (2 mM) (Gibco, Scotland, UK), and penicillin-streptomycin (1% by volume) (PanEco, Moscow, Russia). The cultivation was carried out at 37 °C in a humidified CO2 atmosphere (5%).
(§3) Cell viability was determined by MTT test. Cells were seeded in a 96-well plate in the amount of 1 × 10^4 cells/200µLof complete nutrient medium and cultured at 37 °C in CO2 (5%). After 24 h of incubation, various concentrations of test compounds in the range from 0.1 to 100 μM, were added to the cell cultures, and then the cells were cultured under the same conditions for 24 and 72 h. For each concentration, the experiment was carried out in triplicate.
(§4) All compounds were dissolved in DMSO, then diluted with the medium to the required concentration. […] The DMSO was also added to the control wells in a volume of 1%. After the incubation time, MTT (3-(4,5-dimethylthiazol-2-yl)-2,5-diphenyltetrazolium bromide, 5 mg/mL) was added to each well and plates were additionally incubated for 2 h (until the characteristic color appeared).
(§5) Using a plate analyzer (Cytation3, BioTech Instruments Inc., Winooski, VT, USA), the optical density was determined at 530 nm. The concentration value causing 50% inhibition of cell population growth (IC50) was determined from dose-dependent curves.

[2] = test system: bacterial microflora on rice seeds; assay: Growth of bacterial microflora on treated rice seeds; assay type: cell-based
Experimental: (§6) During phytopathological analyses of agricultural crops, the species composition of fungal and bacterial microflora was established. Laboratory studies were carried out on two nutrient media potato-agar (ingredients: potatoes—200 g; agar-agar—20 g; distilled water—1000 mL.) and potato-dextrose agar (ingredients: potatoes—200 g;dextrose—20 g; agar-agar—20 g; distilled water—1000 mL), according to the guidelines.
(§7) When evaluating the effectiveness of treatment of wheat, alfalfa, barley, rice, and sorghum seeds as fungicidal and bactericidal agents with preparation compounds at concentrations of 10, 20, and 40 mmol, their effect on the suppression of seed infection was evaluated.

alfalfa seeds = assay: Pre-sowing seed treatment, sowing qualities of alfalfa seeds; assay type: in vivo; conditions: for germination energy / laboratory germination: control 76
Experimental: as §7
(§8) […] The sowing qualities were evaluated (germination energy for 3–4 days, laboratory germination for 7–8 days) according to GOST 12038-84 [60]. Sowing qualities of seeds were determined in wet chambers. According to the sample, 50 seeds were taken in 4-fold repetition.

barley seeds = assay: Pre-sowing seed treatment, sowing qualities of barley seeds; assay type: in vivo; conditions: for germination energy / laboratory germination: control 95.2
Experimental: as §7, §8

[3] = test system: bacterial microflora on barley seeds; assay: Growth of bacterial microflora on treated barley seeds; assay type: cell-based; conditions: all studied doses
Experimental: as §6, §7

SH-SY5Y (neuroblastoma) = assay: Cell viability, MTT test; assay type: cell-based, Human; conditions: for IC50: Homo sapiens, SH-SY5Y, read-out: IC50 (concentration causing 50% inhibition of cell population growth)
Experimental: as §1, §2, §3, §4, §5

wheat seeds = assay: Pre-sowing seed treatment, sowing qualities of wheat seeds; assay type: in vivo; conditions: for germination energy: control 82; for laboratory germination: control 85.7
Experimental: as §7, §8

[4] = test system: A549 (adenocarcinomic human alveolar basal epithelial cells); assay: Cell viability, MTT test; assay type: cell-based; conditions: read-out: IC50 (concentration causing 50% inhibition of cell population growth)
Hep-2 (larynx carcinoma) = assay: Cell viability, MTT test; assay type: cell-based; conditions: Homo sapiens, read-out: IC50 (concentration causing 50% inhibition of cell population growth)
[5] = test system: fungal microflora (mushrooms) on alfalfa seeds; assay: Growth of fungal microflora on treated alfalfa seeds; assay type: cell-based; conditions: 10 mmol
Experimental: as §6
When evaluating the effectiveness of treatment of wheat, alfalfa, barley, rice, and sorghum seeds as […], their effect on the suppression of seed infection was evaluated.

SMILES	IC50 ([1]; HEK293, 24 h) [µM]	IC50 ([1]; HEK293, 72 h) [µM]	germination energy (alfalfa seeds; 10 mmol) [%]	laboratory germination (alfalfa seeds; 10 mmol) [%]	germination energy (alfalfa seeds; 20 mmol) [%]	laboratory germination (alfalfa seeds; 20 mmol) [%]	germination energy (alfalfa seeds; 40 mmol) [%]	laboratory germination (alfalfa seeds; 40 mmol) [%]	germination energy (barley seeds; 10 mmol) [%]	laboratory germination (barley seeds; 10 mmol) [%]	sowing qualities of seeds compared with control (barley seeds; 20 mmol)	germination energy (barley seeds; 20 mmol) [%]	laboratory germination (barley seeds; 20 mmol) [%]	germination energy (barley seeds; 40 mmol) [%]	laboratory germination (barley seeds; 40 mmol) [%]	IC50 (SH-SY5Y (neuroblastoma); 24 h) [µM]	IC50 (SH-SY5Y (neuroblastoma); 72 h) [µM]	germination energy (wheat seeds; 10 mmol) [%]	laboratory germination (wheat seeds; 10 mmol) [%]	germination energy (wheat seeds; 20 mmol) [%]	other results
O=[N+]([O-])c1c(Cl)cc2c(no[n+]2[O-])c1NCCCN1CCOCC1 [4e, 6-chloro-4-(3-(morpholino-4-ium)propylamino)-5-nitrobenzo[c][1,2,5]oxadiazole 1-oxide chloride]	99 ± 2.09	86.5 ± 5.75	46.6	46.6	78.5	79.5	73	74	85.7	85.7	higher than control	96	98	94	99	24.1 ± 1.22	20.2 ± 0.72	33.3	42.8	97	effect on bacterial microflora ([2]; 10 mmol): positive effect on the suppression of bacterial microflora; effect on bacterial microflora ([2]; 20 mmol): positive effect on the suppression of bacterial microflora; effect on bacterial microflora [3]: slight suppression of the bacterial microflora; selectivity index (SH-SY5Y (neuroblastoma); IC50 on neuroblastoma SH-SY5Y with respect to Hek 293, 24 h): more than 4; sowing qualities of seeds compared with control (wheat seeds; 20 mmol): higher than in the case of controls; laboratory germination (wheat seeds; 20 mmol): 97.5%; sowing qualities of seeds compared with control (wheat seeds; 40 mmol): higher than in the case of controls; germination energy (wheat seeds; 40 mmol): 98%; laboratory germination (wheat seeds; 40 mmol): 99%; IC50 ([4]; A549, 24 h): 90.2 ± 3.43 µM; IC50 ([4]; A549, 72 h): 77.1 ± 1.36 µM; IC50 (Hep-2 (larynx carcinoma); HEp-2, 24 h): 83 ± 1.37 µM; IC50 (Hep-2 (larynx carcinoma); HEp-2, 72 h): 70.21 ± 0.54 µM
CN(C)CCCNc1c([N+](=O)[O-])c(Cl)cc2c1no[n+]2[O-].Cl [4g, 6-chloro-4-(3-(dimethylammonio)propylamino)-5-nitrobenzo[c][1,2,5]oxadiazole 1-oxide chloride]	21.9 ± 0.39	12 ± 1.12	56.6	60	43.3	63.3	80	80	52.3	52.3	higher than control	100	100	100	100	20.9 ± 0.82	17.07 ± 0.03	42.8	47.6	80.9	sowing qualities of seeds compared with control (alfalfa seeds; 40 mmol): higher than controls; sowing qualities of seeds compared with control (barley seeds; 40 mmol): higher than control; effect on fungal microflora [5]: positive effect on the suppression of fungal microflora; laboratory germination (wheat seeds; 20 mmol): 90.4%; germination energy (wheat seeds; 40 mmol): 80.9%; laboratory germination (wheat seeds; 40 mmol): 80.9%; IC50 ([4]; A549, 24 h): 82 ± 1.54 µM; IC50 ([4]; A549, 72 h): 64.2 ± 2.12 µM; IC50 (Hep-2 (larynx carcinoma); HEp-2, 24 h): 70.3 ± 1.28 µM; IC50 (Hep-2 (larynx carcinoma); HEp-2, 72 h): 58 ± 2.9 µM
